US20070207992A1, “Geldanamycin derivatives and method of use thereof” (Board of Trustees of Michigan State University, priority 2006, published 2007)
Structures can show the parent of a compound that is named as a salt. Where two headings read alike, the source gives them in different places.

Experiments:
P. falciparum W2 = test: Testing of compounds against P. falciparum strain W2; format: cell-based; conditions: Plasmodium falciparum
Excerpt: (§1) Parasitic Lethality: The geldanamycin derivatives were subjected to further testing for lethality to the P. falciparum parasite itself. IC50 values were then obtained as illustrated in Table 1 in Example 3. Samples of the literature compound 17-N-allyl-17-demethoxygeldanamycin was synthesized and tested for killing of parasites. Preferably the drugs are selective for parasitic hsp90 homologs over human hsp90 and have minimal human toxicity. Geldanamycin derivatives of this type have potential for being novel drugs in the treatment of parasitic diseases. The medical community will be able to use these new anti-infective medications alone or in combination with other anti-infective medications. For example, the geldanamycin derivatives of the present invention can be used in combination with chloroquine, since geldanamycin and chloroquine are synergistic inhibitors of Plasmodium falciparum growth as described in Kumar et al. Malaria Journal 2:30 (2003).
(§2) Both parasite strains are chloroquine and pyrimethamine resistant and TM91C235 is also mefloquine resistant.

P. falciparum TM91C235 = test: Testing of compounds against P. falciparum strain TM91C235; format: cell-based; conditions: Plasmodium falciparum
Excerpt: as §1, §2

[1] = target strain W2 (chloroquine and pyrimethamine resistant), read-out: IC50
[2] = target strain W2 (chloroquine and pyrimethamine resistant), read-out: IC90
[3] = target strain TM91C235 (chloroquine, pyrimethamine and mefloquine resistant), read-out: IC50
[4] = target strain TM91C235 (chloroquine, pyrimethamine and mefloquine resistant), read-out: IC90

Row | SMILES | IC50 (P. falciparum W2; [1]) | IC90 (P. falciparum W2; [2]) | IC50 (P. falciparum TM91C235; [3]) | IC90 (P. falciparum TM91C235; [4]) | IC50 (P. falciparum W2; W2) | IC90 (P. falciparum W2; W2) | IC50 (P. falciparum TM91C235) | IC90 (P. falciparum TM91C235)
1 | CCN(CC)CCCC(C)Nc1ccnc2cc(Cl)ccc12 (stereo not drawn) [Chloroquine, reference compound] | – | – | – | – | 0.0297 µg/mL | 0.0378 µg/mL | 0.125 µg/mL | 0.16 µg/mL
2 | CO[C@H]1/C=C\C=C(/C)C(=O)NC2=CC(=O)C(N3CCC3)=C(C[C@@H](C)C[C@H](OC)[C@H](OC(=O)CCCN)[C@@H](C)/C=C(\C)[C@@H]1OC(N)=O)C2=O [Compound A, 11-O-(4-Aminobutyryl)-17-(1-azetidinyl)-17-demethoxygeldanamycin trifluoroacetate] | 0.65 µg/mL | 1.79 µg/mL | 1.03 µg/mL | 2.53 µg/mL | – | – | – | –
3 | CO[C@H]1/C=C\C=C(/C)C(=O)NC2=CC(=O)C(N3CCC3)=C(C[C@@H](C)C[C@H](OC)[C@H](O)[C@@H](C)/C=C(\C)[C@@H]1OC(=O)c1ccccc1)C2=O [Compound E, 17-(1-Azetidinyl)-7-benzoyl-7-decarbamyl-17-demethoxygeldanamycin] | – | – | – | – | 1.26 µg/mL | 5.43 µg/mL | 4.29 µg/mL | 6.07 µg/mL
4 | CO[C@H]1/C=C\C=C(/C)C(=O)NC2=CC(=O)C(N3CCC3)=C(C[C@@H](C)C[C@H](OC)[C@H](O)[C@@H](C)/C=C(\C)[C@@H]1OC(N)=O)C2=O [Compound G, 17-(1-Azetidinyl)-17-demethoxygeldanamycin] | 0.0683 µg/mL | 0.208 µg/mL | 0.169 µg/mL | 0.346 µg/mL | – | – | – | –
5 | OC(c1cc(C(F)(F)F)nc2c(C(F)(F)F)cccc12)C1CCCCN1 (stereo not drawn) [Mefloquine, reference compound] | 0.00163 µg/mL | 0.00409 µg/mL | 0.0138 µg/mL | 0.0291 µg/mL | – | – | – | –

Now from value to compound, other results behind:

Row | IC50 (P. falciparum W2; [1]) | IC90 (P. falciparum W2; [2]) | IC50 (P. falciparum TM91C235; [3]) | IC90 (P. falciparum TM91C235; [4]) | SMILES | IC50 (P. falciparum W2; W2) | IC90 (P. falciparum W2; W2) | IC50 (P. falciparum TM91C235) | IC90 (P. falciparum TM91C235)
6 | 0.786 µg/mL | 2.73 µg/mL | 2.71 µg/mL | 4.02 µg/mL | CCCC(=O)O[C@H]1/C(C)=C/[C@H](C)[C@@H](O)[C@@H](OC)C[C@H](C)CC2=C(N3CCC3)C(=O)C=C(NC(=O)/C(C)=C/C=C\[C@@H]1OC)C2=O [Compound B, 17-(1-Azetidinyl)-7-butyryl-7-decarbamyl-17-demethoxygeldanamycin] | – | – | – | –
7 | 0.875 µg/mL | 3.06 µg/mL | 2.64 µg/mL | 3.95 µg/mL | CO[C@H]1/C=C\C=C(/C)C(=O)NC2=CC(=O)C(N3CCC3)=C(C[C@@H](C)C[C@H](OC)[C@H](O)[C@@H](C)/C=C(\C)[C@@H]1OC(=O)C1CC1)C2=O [Compound C, 17-(1-Azetidinyl)-7-(cyclopropanyl)carbonyl-7-decarbamyl-17-demethoxygeldanamycin] | – | – | – | –
8 | 0.958 µg/mL | 6.18 µg/mL | 4.04 µg/mL | 8.41 µg/mL | CO[C@H]1/C=C\C=C(/C)C(=O)NC2=CC(=O)C(N3CCC3)=C(C[C@@H](C)C[C@H](OC)[C@H](O)[C@@H](C)/C=C(\C)[C@@H]1O)C2=O [Compound D, 17-(1-Azetidinyl)-7-decarbamyl-17-demethoxygeldanamycin] | – | – | – | –
9 | 0.909 µg/mL | 3.74 µg/mL | 3.03 µg/mL | 5.54 µg/mL | CCC(=O)O[C@H]1/C(C)=C/[C@H](C)[C@@H](O)[C@@H](OC)C[C@H](C)CC2=C(N3CCC3)C(=O)C=C(NC(=O)/C(C)=C/C=C\[C@@H]1OC)C2=O [Compound F, 17-(1-Azetidinyl)-7-decarbamyl-17-demethoxy-7-propionylgeldanamycin] | – | – | – | –
